Results as given in patent publication US11964956B2, “Cannabinergic compounds and uses thereof” (Northeastern University, priority 2012, dated 2024).

Legend:
hCB2 [1] = target: T1, hCB2 (Homo sapiens, UniProt P34972); assay: hCB2 competition-equilibrium binding with [3H]CP-55,940, HEK293 membranes
T1 construct: expressed in transfected cells; host or cells: HEK293
Protocol: (§1) HEK293 cells expressing hCB1 or hCB2 or mCB2 receptor are used for membrane preparations according to Abadji et al. The resulting pellet is resuspended in 10 mM Tris-chloride, pH 7.4, with 5 mM MgCl2 and 2 mM EDTA (TME), rapidly frozen in liquid nitrogen and stored at −80° C. for no longer than two months. Protein content is assayed by using the Bio-Rad protein assay according to the manufacturer's protocol.
(§2) All the cannabinoids discussed in this invention are tested for their ability to bind to CB 1 and CB2 receptors using membranes from rat brain or HEK293 cells expressing either mCB2 or hCB2, respectively via competition-equilibrium binding using [^3H]CP-55,940. Results are analyzed using nonlinear regression to determine ligand IC50 (Prism by GraphPad Software, Inc.), and Ki values are calculated from the IC50. IC50 and Ki values are determined from at least three independent experiments.
(§3) Some disclosed compounds were tested for CB1 and CB2 receptor binding affinity, which can be represented by a Ki value. The Ki value is the affinity constant and describes the affinity of the compound for the receptor. […] A detailed description of the methods used to test binding affinity of compounds is given in US 2007/0135388 and in Papahatjis, et al., J. Med. Chem. (2007) 4048, the content of each of which is hereby incorporated by reference.

mCB2 = target: T2, mCB2 (Mus musculus, UniProt P47936); assay: mCB2 competition-equilibrium binding with [3H]CP-55,940, HEK293 membranes
T2 construct: expressed in transfected cells; host or cells: HEK293
Protocol: as §1, §2, §3

rCB1 [2] = target: T3, rCB1 (Rattus norvegicus, UniProt P20272); assay: cAMP assay, rCB1; type: cell-based; settings: for Emax: cAMP assay
Protocol: (§4) Functional characterization of some of the disclosed compounds was performed by using the cyclic adenosine monophosphate (cAMP) assay. The functional potency of the compound in the cAMP assay is represented by the EC50 value. The lower the EC50 value, the higher the functional potency. A detailed description of the cyclic adenosine monophosphate (cAMP) assay is given in Nikas et al. J. Med. Chem. (2010) 6996, the content of which is incorporated herein by reference. Table 10 lists the EC50 values of certain compounds of Formula (Je) in the cAMP assay.

rCB1 [3] = target: T3, rCB1; assay: rCB1 competition-equilibrium binding with [3H]CP-55,940, rat brain membranes; parameters: Frozen rat brains (CB1 source) are obtained from Pel-Freeze Biologicals; tissue Pel-Freeze Biologicals (Rogers, AK); host or cells: rat brain membranes
Protocol: Frozen rat brains (CB1 source) are obtained from Pel-Freeze Biologicals (Rogers, AK) and stored at −80° C. until use. Membranes are prepared according to the method described by Dodd et al. and used in our laboratory as reported.
as §2, §3

hCB2 [4] = target: T1, hCB2; assay: cAMP assay, hCB2; type: cell-based; settings: for Emax: cAMP assay
Protocol: as §4

rats = assay: Hypothermia assay (FIG. 3A); type: in vivo, rat; settings: change in body temperature vs time after injection, compared to AM10843
[5] = background statement; cited from earlier work
mice = assay: Analgesia assay, tail flick / tail immersion (FIG. 3B); type: in vivo, mouse; settings: iso-active doses, compared with nabilone (AM10806) and AM10843
Protocol: Some of the disclosed compounds were tested in vivo using two well defined rodent assays for cannabinergic activity, the analgesia and the hypothermia assays. The analgesia assay (tail immersion test) determines the ability of a test compound to activate cannabinergic signaling, through modulation of cannabinoid receptors, and thereby reduce nociceptive pain. The hypothermia test determines the ability of a test compound to act as a central CB1 agonist and decrease the body temperature. […] The details of both assays are described below.
Analgesia Assay. C57BL6/J mice (Jackson Laboratories, Bar Harbor Maine) were single housed at least 1 h before start of experiment. Food and water were removed immediately before the first injection.
Route of administration=i.p. Volume=1 mL/100 g body weight.
Tail withdrawal test: 52° C. water bath (use bags). Bag was made of stapled surgery sheets to form a small pocket the size of a mouse. […] The tip of the mouse's tail was dipped into the warm water, with 1 cm submerged.

T1 sequence (P34972 whole entry): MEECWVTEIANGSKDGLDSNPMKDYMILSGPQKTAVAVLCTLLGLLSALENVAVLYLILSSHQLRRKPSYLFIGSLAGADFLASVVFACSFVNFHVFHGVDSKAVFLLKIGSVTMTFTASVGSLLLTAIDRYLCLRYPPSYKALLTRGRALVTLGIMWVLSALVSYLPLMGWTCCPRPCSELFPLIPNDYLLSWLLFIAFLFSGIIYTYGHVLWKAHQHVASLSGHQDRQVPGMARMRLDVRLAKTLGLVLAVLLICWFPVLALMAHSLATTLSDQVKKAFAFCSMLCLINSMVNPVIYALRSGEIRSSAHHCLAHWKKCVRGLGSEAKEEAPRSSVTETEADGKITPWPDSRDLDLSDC
T3 sequence (P20272 whole entry): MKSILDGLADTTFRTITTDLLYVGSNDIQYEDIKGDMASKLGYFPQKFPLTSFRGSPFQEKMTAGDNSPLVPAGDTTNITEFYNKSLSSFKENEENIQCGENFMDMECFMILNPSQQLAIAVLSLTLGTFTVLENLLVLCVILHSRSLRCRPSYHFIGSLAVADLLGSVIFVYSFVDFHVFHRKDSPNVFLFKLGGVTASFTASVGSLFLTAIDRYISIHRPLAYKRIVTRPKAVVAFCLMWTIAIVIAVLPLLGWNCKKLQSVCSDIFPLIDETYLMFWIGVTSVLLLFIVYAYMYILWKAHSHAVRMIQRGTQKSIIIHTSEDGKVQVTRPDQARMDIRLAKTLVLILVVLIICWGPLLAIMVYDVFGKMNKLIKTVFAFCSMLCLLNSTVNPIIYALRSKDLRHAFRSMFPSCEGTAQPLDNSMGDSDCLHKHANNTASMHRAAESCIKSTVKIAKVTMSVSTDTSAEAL
T2 sequence (P47936 whole entry): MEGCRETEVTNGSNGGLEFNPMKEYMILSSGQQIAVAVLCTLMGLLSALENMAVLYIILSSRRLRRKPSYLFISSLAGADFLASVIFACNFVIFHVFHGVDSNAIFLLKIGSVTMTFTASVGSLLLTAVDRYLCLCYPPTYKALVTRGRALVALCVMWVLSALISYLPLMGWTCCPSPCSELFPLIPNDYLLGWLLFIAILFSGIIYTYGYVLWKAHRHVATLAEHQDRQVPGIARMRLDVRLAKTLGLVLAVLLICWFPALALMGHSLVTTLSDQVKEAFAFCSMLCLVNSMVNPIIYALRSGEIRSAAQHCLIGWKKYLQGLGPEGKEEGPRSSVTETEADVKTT

| Compound | Ki (hCB2 [1]) [nM] | Ki (mCB2) [nM] | EC50 (rCB1 [2]) [nM] | Emax (rCB1 [2]) [%] | Ki (rCB1 [3]) [nM] | EC50 (hCB2 [4]) [nM] | Emax (hCB2 [4]) [%] | duration of hypothermic effect (rats) | slow and erratic absorption [5] [h] | duration of analgesic effect (tail flick) (mice) |
| --- | --- | --- | --- | --- | --- | --- | --- | --- | --- | --- |
| CC(C)(C(=O)OCCCC#N)c1cc(O)c2c(c1)OC(C)(C)[C@@H]1CCC(=O)C[C@@H]21 [8 AM10811, 3-Cyanopropyl-2-((6aR,10aR)-1-hydroxy-6,6-dimethyl-9-oxo-6a,7,8,9,10,10a-hexahydro-6H-benzo[c]chromen-3-yl)-2-methylpropanoate] | 6.2 ± 2.7 | 1.1 ± 0.4 | 0.4 ± 0.06 | 87 | 0.7 ± 0.03 | 0.1 ± 0.03 | 77 | shorter acting | – | – |
| CCCCCc1cc(O)c2c(c1)OC(C)(C)[C@@H]1CCC(C)=C[C@@H]21 [Dronabinol] | – | – | – | – | – | – | – | – | 2 to 6 | – |
| CC(C)(C(=O)OCCCN=[N+]=[N-])c1cc(O)c2c(c1)OC(C)(C)[C@@H]1CCC(=O)C[C@@H]21 [Compound 9, 3-Azidopropyl-2-((6aR,10aR)-1-hydroxy-6,6-dimethyl-9-oxo-6a,7,8,9,10,10a-hexahydro-6H-benzo[c]chromen-3-yl)-2-methylpropanoate] | 3.1 | 4 | 0.2 | 52 | 0.13 | 2.1 | 87 | – | – | – |
| CCCOC(=O)CC(C)(C)c1cc(O)c2c(c1)OC(C)(C)[C@@H]1CCC(=O)C[C@@H]21 [18 AM10819, Propyl-3-((6aR,10aR)-1-hydroxy-6,6-dimethyl-9-oxo-6a,7,8,9,10,10a-hexahydro-6H-benzo[c]chromen-3-yl)-3-methylbutanoate] | 90 ± 11.3 | 26 ± 3.6 | 15.9 ± 3.6 | 90 | 11 ± 1.4 | 0.2 ± 0.09 | 82 | – | – | shorter acting |
| CC(C)(C(=O)OCCCN=C=S)c1cc(O)c2c(c1)OC(C)(C)[C@@H]1CCC(=O)C[C@@H]21 [Compound 10, 3-Isothiocyanatopropyl-2-((6aR,10aR)-1-hydroxy-6,6-dimethyl-9-oxo-6a,7,8,9,10,10a-hexahydro-6H-benzo[c]chromen-3-yl)-2-methylpropanoate] | 22 | 20 | 13.8 | 38 | 7.9 | – | – | – | – | – |
| CCCCCOC(=O)C(C)(C)c1cc(O)c2c(c1)OC(C)(C)[C@@H]1CCC(=O)C[C@@H]21 [Compound 34c, Pentyl 2-((6aR,10aR)-1-hydroxy-6,6-dimethyl-9-oxo-6a,7,8,9,10,10a-hexahydro-6H-benzo[c]chromen-3-yl)-2-methylpropanoate] | 11.5 ± 1.6 | 6.1 ± 1.1 | 8.9 ± 2.3 | 94 | 0.4 ± 0.01 | 8.4 ± 1.8 | 46 | – | – | – |
| CCCCOC(=O)C(C)(C)c1cc(O)c2c(c1)OC(C)(C)C1CCC(=O)CC21 (centres unmarked) [AM 10843] | – | – | 1 ± 0.3 | 83 | – | 1.1 ± 2.3 | 80 | – | – | – |
| CCCCSC(=O)C(C)(C)c1cc(O)c2c(c1)OC(C)(C)[C@@H]1CCC(=O)C[C@@H]21 [Compound 34h, S-Butyl 2-((6aR,10aR)-1-hydroxy-6,6-dimethyl-9-oxo-6a,7,8,9,10,10a-hexahydro-6H-benzo[c]chromen-3-yl)-2-methylpropanethioate] | 16 ± 2.4 | 5 ± 1.4 | 0.2 ± 0.04 | 89 | 0.7 ± 0.03 | 83.4 ± 4.7 | 72 | – | – | – |
